For 47 compounds, IC50 and inhibition results are on record in patent US12398111B2, “Triazine compounds and pharmaceutical use thereof” (Japan Tobacco Inc., priority 2014, dated 2025).

One assay addresses T1, human mPGES-1 (Homo sapiens, UniProt O14684).
T1 construct: made in house; host or cells: FreeStyle CHO-S cells (Chinese hamster ovary), transient transfection with pcDNA3.1(+)/human mPGES-1; microsome fraction used
T1 sequence (O14684 1-152): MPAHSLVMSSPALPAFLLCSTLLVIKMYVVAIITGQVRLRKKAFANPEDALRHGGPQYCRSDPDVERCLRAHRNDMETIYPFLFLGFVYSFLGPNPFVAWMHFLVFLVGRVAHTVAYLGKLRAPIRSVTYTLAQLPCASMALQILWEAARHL
Briefly: Evaluation of human mPGES-1 enzyme inhibitory activity (PGE2 measured by HTRF, microsome fraction of CHO-S cells expressing human mPGES-1). Format: biochemical. As to conditions: IC50 value; microsome fraction of CHO-S cells expressing human mPGES-1, PGE2 by HTRF. On the procedure: That is, the amount of PGE2 produced by human mPGES-1 in the presence of a test article was measured by the HTRF (homogeneous time resolved fluorescence) method, based on which the human mPGES-1 enzyme inhibitory activity of the test article was determined.
1) Preparation of Human mPGES-1 Expressing Cell Microsome Fraction
A DNA fragment containing human mPGES-1, which is added with a BamHI recognition cleavage sequence immediately before the translation initiation codon and an EcoRI recognition cleavage sequence immediately after the translation termination codon was amplified by the PCR (Polymerase Chain Reaction) method using a human mPGES-1 expression plasmid DNA (pME-18S/iPGES-1) prepared in-house as a template. The purified DNA fragment was digested with BamHI and EcoRI, and ligated to pcDNA3.1(+) (Invitrogen, model number V790-20), similarly digested with BamHI and EcoRI, by using a DNA Ligation kit ver.2.1 (Takara Bio, model number 6022). The human mPGES-1 expression plasmid DNA was isolated from Escherichia coli DH5a (TOYOBO, model number DNA-903) transformed with the obtained ligation product. The base sequence of human mPGES-1 cloned to a vector was determined by the Dye Terminator method by using BigDye Terminator v3.1 Cycle Sequencing Kit (Applied Biosystems, #4337455).
Human mPGES-1 expression plasmid DNA was transfected into Chinese hamster ovary-derived cells (FreeStyle CHO-S Cell, Invitrogen, #R800-07) by using a transgene reagent (FreeStyle MAX Reagent (Invitrogen, #16447-100)), and cultured with shaking (8% CO2, 37° C.) in a medium containing 8 mmol/L L-glutamine (GIBCO FreeStyle CHO Expression Medium, Invitrogen, #12651-022) for 48 hr.
The CHO-S cells were suspended in Homogenate Buffer (100 mmol/L potassium phosphate (pH 7.4), 250 mmol/L Sucrose, 100 mmol/L EDTA, complete EDTA free (Roche, #1873580)). Using an ultrasonic disruptor UD-201 (Tomy Seiko), the suspended cells were disrupted at output:3, duty cycle:50 for 30 seconds. The precipitate was removed by centrifugation (1,000×g, 5 min, 4° C.), is and the supernatant was centrifuged (5,000×g, 10 min, 4° C.). The supernatant was further centrifuged (105,000×g, 60 min, 4° C.). The obtained precipitate was suspended in Resuspension Buffer (100 mmol/L potassium phosphate (pH 7.4), 250 mmol/L sucrose, 100 mmol/L EDTA, 10% glycerol) to give a microsome fraction.
The protein concentration of the microsome fraction was measured by the Bradford method (Protein Assay Kit, Bio-Rad). The microsome fraction was rapidly frozen in liquid nitrogen and preserved at −80° C. Human mPGES-1 in the microsome fraction was detected by Western Blot using rabbit anti-mPGES-1 polyclonal antibody (ThermoFisher Scientific, #PA1-10264).
2) Evaluation of Human mPGES-1 Enzyme Inhibitory Activity
A test article solution diluted with 0.1 mol/L potassium phosphate, pH 7.4 (hereinafter to be referred to as KPB) or DMSO (Nacalai Tesque, #13407-45) was added at 5 μL/well to 96 well V-bottom plate (Corning, #3363). The final DMSO concentration during the reaction was set to 2% (v/v). Furthermore, a microsome fraction of CHO-S cells expressing human mPGES-1, which was diluted with reduced GSH (12.5 mmol/L KPB solution, SIGMA, #G6529-25G) such that the protein concentration was 5 μg/mL, was added at 20 μL/well. The amount of the microsome fraction used is the amount of microsome fraction within a range where the amount of PGE2 produced under the reaction conditions shown below and the amount of microsome fraction used show linearity. To the blank was added reduced GSH (12.5 mmol/L KPB solution) at 20 μL/well.
In general, IC50 refers to the concentration that inhibits the measured activity by half. Read a low IC50 as higher potency. In the case of `OCCOc1cccc(Cl)c1-c1nc(O)nc(-c2ccc(C(F)(F)F)cc2)n1` [Example 2-22], the concentration for half-maximal inhibition (IC50) stood at 219 nM.
As to `Cc1cccc(C)c1-c1nc(O)nc(-c2ccc(OCC3CCCCCC3)cc2)n1` [Example 2-57], 25 nM corresponded to half-maximal inhibition (IC50).
With `CNC(=O)NCc1ccc(Cl)c(-c2nc(O)nc(-c3ccc(C(F)(F)F)cc3)n2)c1` [Example 1-35], the IC50 was found to be 22 nM.
Consider `CN(C)C(=O)Cc1ccc(Cl)c(-c2nc(O)nc(-c3ccc(C(F)(F)F)cc3)n2)c1` [Example 1-40], for which the IC50 is 2230 nM.
On the same count and under the same terms, as for `CN(Cc1ccc(Cl)c(-c2nc(O)nc(-c3ccccc3)n2)c1)C(=O)C1(C(F)(F)F)CCCCC1` [Example 1-244], the figure is 21 nM; as for `CC1(C)C(=O)N(Cc2ccc(Cl)c(-c3nc(O)nc(-c4ccccc4)n3)c2)c2ccccc21` [Example 1-258, 1-[4-chloro-3-(4-hydroxy-6-phenyl-1,3,5-triazin-2-yl)-benzyl]-3,3-dimethyl-1,3-dihydroindol-2-one], 1900 nM.
As for `Cc1cccc(Cl)c1-c1nc(O)nc(-c2ccc(C(F)(F)F)cc2)n1` [Example 2-19], half-maximal inhibition (IC50) was put at 211 nM. Against the preceding compound, the IC50 is about 9-fold lower.
In the case of `CC(C)Cc1cccc(-c2nc(O)nc(-c3cc(CNC(=O)C(C)(C)C(F)(F)F)ccc3Cl)n2)c1` [Example 1-95], it took 2.1 nM to reach half-maximal inhibition (IC50).
The same measure, in the same setting: as for `CC(C)(C(=O)NCc1ccc(Cl)c(-c2nc(O)nc(-c3ccc(OCC4(C(F)(F)F)CC4)cc3)n2)c1)C(F)(F)F` [Example 1-164], the figure is 3.7 nM.
`CC(C)(C(=O)NCc1ccc(Cl)c(-c2nc(O)nc(-c3cccc(C(F)(F)F)c3)n2)c1)C(F)(F)F` [Example 1-59] displayed an IC50 of 0.6 nM. Compared with the last compound, the IC50 is about 6.2-fold lower.
Regarding `CC(C)c1cccc(-c2nc(O)nc(-c3cc(CNC(=O)C(C)(C)C)ccc3Cl)n2)c1` [Example 1-49], the concentration for half-maximal inhibition (IC50) amounted to 0.9 nM. Compared with the last compound, the IC50 is about 1.5-fold higher.
The same measure, in the same setting: as for `Oc1ccc(Cl)c(-c2nc(O)nc(-c3ccc(C(F)(F)F)cc3)n2)c1` [Example 1-7], the figure is 652 nM.
Same read-out and setting: as for `Cc1ccc(C#Cc2ccc(-c3nc(O)nc(-c4c(OCc5ccccn5)cccc4C(F)(F)F)n3)cc2)cc1` [Example 2-102], the figure is 5.9 nM; as for `Oc1nc(-c2ccc(C#Cc3ccccc3C(F)(F)F)cc2)nc(-c2c(OCc3ccccn3)cccc2C(F)(F)F)n1` [Example 2-103], 10 nM; as for `CC(C)(C(=O)NCc1ccc(Cl)c(-c2nc(O)nc(-c3ccc(OCC4CCCCC4)cc3)n2)c1)C(F)(F)F` [Example 1-172], 17 nM.
On to `Cc1ccccc1COc1cccc(Cl)c1-c1nc(O)nc(-c2ccc(C(F)(F)F)cc2)n1` [Example 2-53], for which the IC50 is 11 nM.
In turn, `COCc1ccc(Cl)c(-c2nc(O)nc(-c3ccc(OCC(C)(C)C)cc3)n2)c1` [Example 1-197] gave an IC50 of 289 nM.
In turn, `Oc1nc(-c2ccc(C#Cc3ccccn3)cc2)nc(-c2c(Cl)cccc2OCc2ccccn2)n1` [Example 2-97] gave an IC50 of 8.9 nM.
The compound `Oc1nc(-c2ccc(C(F)(F)F)cc2)nc(-c2c(Cl)cccc2OCC(F)(F)F)n1` [Example 2-36] had an IC50 of 53 nM.
In turn, `Oc1nc(-c2ccc(C#CC3CCCCC3)cc2)nc(-c2c(Cl)cccc2OCc2ccccn2)n1` [Example 2-76] had an IC50 of 5.8 nM.
Consider `Cc1ccc(C(F)(F)F)cc1-c1nc(O)nc(-c2ccc(C(F)(F)F)cc2)n1` [Example 1-9], for which 601 nM corresponded to half-maximal inhibition (IC50).
Consider `CN(Cc1ccc(Cl)c(-c2nc(O)nc(-c3ccccc3)n2)c1)C(=O)c1ccccc1` [Example 1-230], for which the IC50 was found to be 750 nM.
`CNC(=O)c1ccc(Cl)c(-c2nc(O)nc(-c3ccc(OCC4CC4)cc3)n2)c1` [Example 1-194]: 10500 nM corresponded to half-maximal inhibition (IC50).
On the same count and under the same terms, as for `Cc1ccc(Cl)c(-c2nc(O)nc(-c3ccc(C(F)(F)F)cc3)n2)c1OCCO` [Example 3-9], the figure is 776 nM.
As for `CO[C@](C)(C(=O)NC(C)c1ccc(Cl)c(-c2nc(O)nc(-c3ccc(OCC(C)(C)C)cc3)n2)c1)C(F)(F)F` (single isomer, unassigned) [Example 1-200], the IC50 is 10 nM. This IC50 lies about 78-fold lower than the previous one.
In turn, `CC(C)Oc1ccc(-c2nc(O)nc(-c3cc(CNC(=O)C(C)(C)C(F)(F)F)ccc3Cl)n2)cc1` [Example 1-140] had an IC50 of 0.5 nM.
`CN(C)C(=O)COc1cccc(Cl)c1-c1nc(O)nc(-c2ccc(OCC3CC3)cc2)n1` [Example 2-90] showed an IC50 of 2100 nM.
The same measure, in the same setting: as for `CCCOc1ccc(-c2nc(O)nc(-c3cc(CNC(=O)C4(C(F)(F)F)CC4)ccc3Cl)n2)cc1` [Example 1-154], the figure is 0.5 nM.
On to `CC1CCC2(CC1)CN(Cc1ccc(Cl)c(-c3nc(O)nc(-c4ccccc4)n3)c1)C2=O` (single isomer, unassigned) [Example 1-257], for which inhibition was half-maximal at 17 nM (IC50).
Turning to `Cc1cc(-c2nc(O)nc(-c3cc(CNC(=O)C4(C(F)(F)F)CCC4)ccc3Cl)n2)ccc1F` [Example 1-125], half-maximal inhibition (IC50) required 0.8 nM.
The compound `Cc1ccc(CO)cc1-c1nc(O)nc(-c2ccc(C(F)(F)F)cc2)n1` [Example 1-45] displayed a 50% inhibitory concentration (IC50) of 138 nM.
Take `COCCc1ccc(Cl)c(-c2nc(O)nc(-c3ccc(OCC(C)(C)C)cc3)n2)c1` [Example 1-199]: inhibition was half-maximal at 31 nM (IC50).
`CO[C@](C)(C(=O)NCc1ccc(Cl)c(-c2nc(O)nc(-c3ccc(F)c(C)c3)n2)c1)C(F)(F)F` [Example 1-106] had an IC50 of 0.7 nM.
On the same count and under the same terms, as for `CC(C)(C(=O)NCc1ccc(Cl)c(-c2nc(O)nc(-c3cccc(OCC(F)(F)F)c3)n2)c1)C(F)(F)F` [Example 1-99], the figure is 0.7 nM; as for `CN(Cc1ccc(Cl)c(-c2nc(O)nc(-c3ccccc3)n2)c1)C(=O)C1CCCCC1` [Example 1-229], 532 nM; as for `Cc1c(CO)ccc(Cl)c1-c1nc(O)nc(-c2ccc(C(F)(F)F)cc2)n1` [Example 3-6], 56 nM.
For the compound `CCc1cc(-c2nc(O)nc(-c3cc(CNC(=O)[C@@](C)(OC)C(F)(F)F)ccc3Cl)n2)ccc1F` [Example 1-151], half-maximal inhibition (IC50) was put at 0.4 nM.
With `Cc1ccc(C)c(-c2nc(O)nc(-c3ccc(C(F)(F)F)cc3)n2)c1` [Example 1-2], the IC50 was found to be 138 nM.
`CN(Cc1ccc(Cl)c(-c2nc(O)nc(-c3ccccc3)n2)c1)C(=O)C(C)(C)Cc1ccccc1` [Example 1-249] yielded an IC50 of 226 nM. This IC50 is about 1.6-fold higher than that of the compound before.
For `Cc1cccc(C)c1-c1nc(O)nc(-c2ccc(Cl)cc2)n1` [Example 2-25], half-maximal inhibition (IC50) required 249 nM.
In the case of `Cc1cccc(C)c1-c1nc(O)nc(-c2ccc(C#Cc3ccccc3)cc2)n1` [Example 2-11], inhibition was half-maximal at 6 nM (IC50). This IC50 is about 42-fold lower than that of the compound before.
The compound `CC(C)Cc1ccc(-c2nc(O)nc(-c3cc(CC(=O)N(C)C(C)(C)C)ccc3Cl)n2)cc1` [Example 1-232] came in with an IC50 of 521 nM. Against the preceding compound, the IC50 is about 87-fold higher.
With `CCc1ccc(C#Cc2ccc(-c3nc(O)nc(-c4c(OCc5cccc(C)n5)cccc4C(F)(F)F)n3)cc2)cc1` [Example 2-128], the IC50 was 13 nM.
Compound `CO[C@](C)(C(=O)NCc1ccc(Cl)c(-c2nc(O)nc(-c3cccc(OC(F)(F)F)c3)n2)c1)C(F)(F)F` [Example 1-103] had an IC50 of 1.3 nM.
Compound `Oc1nc(-c2ccc(C#CC3CCCCC3)cc2)nc(-c2c(Cl)cccc2OCc2ccccn2)n1` [Example 2-92] displayed a 50% inhibitory concentration (IC50) of 4.4 nM.
For the compound `COC(C)(C)C(=O)NCc1ccc(Cl)c(-c2nc(O)nc(-c3ccc(C(F)(F)F)cc3)n2)c1` [Example 1-56], the half-maximal inhibitory concentration (IC50) was determined as 0.6 nM.

Still in this assay, the particulars now being: at 30 μM test article.
A word on the inhibition: it is how much of the control response was suppressed. In turn, `Cc1ccc(C(N)=O)cc1-c1nc(O)nc(-c2ccc(C(F)(F)F)cc2)n1` [Example 1-11] showed an inhibition at 30 µM of 42%.
